Measurements taken from PubChem BioAssay AID1259407 (Chemical Carcinogenesis Research Information System (CCRIS), 2018).
The source made the active and inactive calls. How the calls were made is not given here.

System: CCRIS mutagenicity, Ames/micronucleus/aberration tests
Assay: CCRIS mutagenicity studies

`NC1=CC(=O)C(=O)c2ccccc21` was tested, and the mutagenic call (Test System: AMES SALMONELLA TYPHIMURIUM, Strain/Indicator: TA97, Metabolic Activation: NONE, Method: PREINCUBATION) was “active; positive”, the mutagenic call (Test System: AMES SALMONELLA TYPHIMURIUM, Strain/Indicator: TA97, Metabolic Activation: RAT, LIVER, S-9, PHENOBARBITAL AND 5,6-BENZOFLAVONE, Method: PREINCUBATION) was “active; positive” and the mutagenic call (Test System: AMES SALMONELLA TYPHIMURIUM, Strain/Indicator: TA98, Metabolic Activation: NONE, Method: PREINCUBATION) was “inactive; negative”. For the same compound, the mutagenic call (Test System: AMES SALMONELLA TYPHIMURIUM, Strain/Indicator: TA98, Metabolic Activation: RAT, LIVER, S-9, PHENOBARBITAL AND 5,6-BENZOFLAVONE, Method: PREINCUBATION) was “active; positive”, the mutagenic call (Test System: AMES SALMONELLA TYPHIMURIUM, Strain/Indicator: TA100, Metabolic Activation: NONE, Method: PREINCUBATION) was “active; positive” and the mutagenic call (Test System: AMES SALMONELLA TYPHIMURIUM, Strain/Indicator: TA100, Metabolic Activation: RAT, LIVER, S-9, PHENOBARBITAL AND 5,6-BENZOFLAVONE, Method: PREINCUBATION) was “active; positive”. The mutagenic call (Test System: AMES SALMONELLA TYPHIMURIUM, Strain/Indicator: TA102, Metabolic Activation: NONE, Method: PREINCUBATION) was “inactive; negative”, the mutagenic call (Test System: AMES SALMONELLA TYPHIMURIUM, Strain/Indicator: TA102, Metabolic Activation: RAT, LIVER, S-9, PHENOBARBITAL AND 5,6-BENZOFLAVONE, Method: PREINCUBATION) was “inactive; negative” and the mutagenic call (Test System: AMES SALMONELLA TYPHIMURIUM, Strain/Indicator: TA104, Metabolic Activation: NONE, Method: PREINCUBATION) was “active; positive”. For the same compound, the mutagenic call (Test System: AMES SALMONELLA TYPHIMURIUM, Strain/Indicator: TA104, Metabolic Activation: RAT, LIVER, S-9, PHENOBARBITAL AND 5,6-BENZOFLAVONE, Method: PREINCUBATION) was “active; positive”, the mutagenic call (Test System: AMES SALMONELLA TYPHIMURIUM, Strain/Indicator: TA1535, Metabolic Activation: NONE, Method: PREINCUBATION) was “inactive; negative” and the mutagenic call (Test System: AMES SALMONELLA TYPHIMURIUM, Strain/Indicator: TA1535, Metabolic Activation: RAT, LIVER, S-9, PHENOBARBITAL AND 5,6-BENZOFLAVONE, Method: PREINCUBATION) was “inactive; negative”. For the same compound, the mutagenic call (Test System: AMES SALMONELLA TYPHIMURIUM, Strain/Indicator: TA1537, Metabolic Activation: NONE, Method: PREINCUBATION) was “inactive; negative”, the mutagenic call (Test System: AMES SALMONELLA TYPHIMURIUM, Strain/Indicator: TA1537, Metabolic Activation: RAT, LIVER, S-9, PHENOBARBITAL AND 5,6-BENZOFLAVONE, Method: PREINCUBATION) was “active; positive” and the mutagenic call (Test System: AMES SALMONELLA TYPHIMURIUM, Strain/Indicator: TA1538, Metabolic Activation: NONE, Method: PREINCUBATION) was “inactive; negative”. For the same compound, the mutagenic call (Test System: AMES SALMONELLA TYPHIMURIUM, Strain/Indicator: TA1538, Metabolic Activation: RAT, LIVER, S-9, PHENOBARBITAL AND 5,6-BENZOFLAVONE, Method: PREINCUBATION) was “inactive; negative”, the mutagenic call (Test System: AMES SALMONELLA TYPHIMURIUM, Strain/Indicator: TA2637, Metabolic Activation: NONE, Method: PREINCUBATION) was “active; positive” and the mutagenic call (Test System: AMES SALMONELLA TYPHIMURIUM, Strain/Indicator: TA2637, Metabolic Activation: RAT, LIVER, S-9, PHENOBARBITAL AND 5,6-BENZOFLAVONE, Method: PREINCUBATION) was “active; positive”.
For `O=Nc1ccc2ccc3c4ccccc4cc4ccc1c2c43`, the mutagenic call (Test System: AMES SALMONELLA TYPHIMURIUM, Strain/Indicator: TA98 (1,8-DNP6), Metabolic Activation: NONE, Method: STANDARD PLATE) was “active; positive”, the mutagenic call (Test System: AMES SALMONELLA TYPHIMURIUM, Strain/Indicator: TA98 (NR), Metabolic Activation: NONE, Method: STANDARD PLATE) was “active; positive” and the mutagenic call (Test System: AMES SALMONELLA TYPHIMURIUM, Strain/Indicator: TA98, Metabolic Activation: NONE, Method: STANDARD PLATE) was “active; positive”. The mutagenic call (Test System: CHINESE HAMSTER OVARY, Strain/Indicator: CHO-K1-BH4 (HGPRT), Metabolic Activation: NONE) was “active; positive”.
